Columns and labels:
BLT2 [1] = target: T1, BLT2 (Homo sapiens, UniProt Q9NPC1); assay: [3H]LTB4 and BLT2 binding inhibition, CHO-BLT2 cell membrane proteins; details: [3H]LTB4 5 nM
T1 construct: HA; expressed in transfected cells
T1 sequence (Q9NPC1 with tags, fused parts or gaps): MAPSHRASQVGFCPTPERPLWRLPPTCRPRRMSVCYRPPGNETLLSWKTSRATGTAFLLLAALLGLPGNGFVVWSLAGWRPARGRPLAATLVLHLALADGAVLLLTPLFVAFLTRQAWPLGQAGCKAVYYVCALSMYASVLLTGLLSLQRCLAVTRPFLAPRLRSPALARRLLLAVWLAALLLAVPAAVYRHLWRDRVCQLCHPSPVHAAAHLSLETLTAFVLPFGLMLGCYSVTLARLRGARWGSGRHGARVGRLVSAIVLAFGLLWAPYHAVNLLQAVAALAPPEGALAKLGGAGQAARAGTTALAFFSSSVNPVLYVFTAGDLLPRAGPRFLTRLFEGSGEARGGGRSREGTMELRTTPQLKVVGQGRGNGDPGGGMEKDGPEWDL
Procedure: The inhibition of LTB4 and BLT2 binding (ligand binding affinity) was analyzed using radioactive tritium (^3H)-labeled LTB4 ([^3H]LTB4, ARC; specific activity 160.0 Ci/mmol). After 2×10^6 of CHO-BLT2 cells were plated into a 100-mm culture dish and cultured for 48 hours, an experimental method was carried out as follows: Collected cells were treated using a homogenizer a total of five times for 1 minute each to separate proteins of the cell membrane. Afterward, the cells were subjected to centrifugation at 4° C. and 45,000 rpm for 40 minutes to only collect the proteins of the cell membrane, and thereby, a protein concentration of 40 μg/45 μL was quantified. When a BLT2-containing cell membrane proteins which were quantified in the same manner was treated with the same amount of [^3H]LTB4 (5 nM), and then a different concentration (10^−9, 10^−8, 10^−7, 10^−6 or 10^−5 M) of a compound, a degree of inhibiting the tritium-labeled LTB4 and BLT2 binding was measured using a Hidex 300sL liquid scintillation counter.

BLT2 [2] = target: T1, BLT2; assay: LTB4-induced chemotactic motility, Transwell, CHO-BLT2 cells; format: cell-based; details: LTB4 300 nM, serum-free, read-out: IC50 of chemotactic motility inhibition
Procedure: (§1) Chemotactic motility was analyzed using a Transwell chamber including a polycarbonate filter (8-μm pore size, Corning Costar) with a 6.5-mm diameter. Specifically, the lower surface of the filter was coated with 10 μg/mL fibronectin in a serum-free RPMI 1640 medium at 37° C. for 1 hour. The experiment was performed by placing the filter dried and coated with RPMI 1640 media containing various amounts of LTB4 in the lower wells of the Transwell chamber, and loading CHO cells stably expressing BLT1 and BLT2 into the upper wells containing serum-free RPMI 1640 media finally at 2×10^4 cells/100 μL. To evaluate the effect of inhibitors, the cells were pre-treated with each inhibitor for 30 minutes before dispensing. After the cells were cultured at 37° C. in 5% CO2 for 3 hours, the filters were fixed with methanol for 3 minutes, and stained with hematoxylin and eosin for 10 minutes. In the experiment, the cells were BLT2-expressing cells (CHO-BLT2 cells) and BLT1-expressing cells (CHO-BLT1 cells), and LY255283 and U75302 were used as positive controls for each type of the cells, and BLT2 ligand LTB4, (300 nM), BLT1 ligand LTB4 (10 nM), and lysophosphatidic acid (LPA; 100 nM) were used as comparative controls. The chemotactic motility was quantitatively analyzed by counting the cells on the lower side of the filter under an optical microscope (magnification, 200×). For each analysis, 6 fields were subjected to counting, each sample was analyzed twice, and the analysis was repeated three times.

[3] = target: T2, BLT2-expressing cells (CHO-BLT2 cells) (Homo sapiens, UniProt Q9NPC1); assay: MTT cell growth of LTB4-stimulated BLT2-expressing cells; format: cell-based; details: pre-treated at 10 μM, LTB4 300 nM
T2 construct: HA; expressed in transfected cells
T2 sequence (Q9NPC1 with tags, fused parts or gaps): T1 sequence (Q9NPC1 with tags, fused parts or gaps)
Procedure: Cell viability according to treatment of the compounds prepared in the examples were measured by a 3-(4,5-dimethylthiazol-2-yl)-2,5-diphenyltetrazolium bromide (MTT) method.
More specifically, 1×10^4 each of the BLT2-nonexpressing cells (CHO-pcDNA3.1 cells) and BLT2-expressing cells (CHO-BLT2 cells), which were prepared in Experimental Example 1, were dispensed in a […], and cultured for 24 hours. Afterward, the culture medium was removed, a serum-free RPMI medium was added, and after two hours, the cells were pre-treated with each of the compound prepared in one of the examples (10 μM), 10 μM DMSO (compound solvent) as a control, and 10 μM 1-[5-ethyl-2-hydroxy-4-[[6-methyl-6-(1H-tetrazol-5-yl)heptyl]oxy]phenyl]-ethanone (LY255283; Cayman) as a positive control for 1 hour. Subsequently, after treatment of LTB4 (300 nM), the cells were cultured for 24 hours. 20 μL of an MTT solution (5 mg/mL, Sigma-Aldrich) was added to each well, the cells were cultured in a humid CO2 incubator at 37° C. for 4 hours, a supernatant was removed, and 200 μL of DMSO was added to each well to dissolve insoluble violet formazan crystals. Absorbance was measured using a microplate reader (Molecular Devices, Sunnyvale, Calif.) at 550 nm, and the measurement was repeated three times.

BLT1 = target: T3, BLT1 (Homo sapiens, UniProt Q15722); assay: LTB4-induced chemotactic motility, Transwell, CHO-BLT1 cells; format: cell-based; details: LTB4 10 nM, serum-free, read-out: IC50 of chemotactic motility inhibition
T3 construct: expressed in transfected cells; host or cells: CHO cells stably expressing BLT1 (CHO-BLT1)
Procedure: as §1

[4] = system: asthma-induced mice (OVA+LPS); assay: OVA+LPS-induced severe asthma mice: AHR and cell influx; format: in vivo; details: for AHR reduced: airway constrictor 50 mg/ml
Description: Mast cells play a pivotal role in the initial reaction to asthma, and when an allergen enters the body from the outside through an airway, the mast cells are activated, thereby secreting various cytokines (interleukin-4 and interleukin-13). Due to the cytokines, the influx of inflammatory cells, the generation of mucus and the airway contraction occur. The inventors used 7-week-old (18 to 20 g) female BALB/c mice provided by Orient (Seoungnam, Korea) for the experiment to confirm the antiasthma effect, and then the asthma was induced in the mice. On the first and 14th days, 2.5 mg of an adjuvant, aluminum hydroxide gel (alum; Pierce, Rockford, Ill.) was included in […] of ovalbumin (OVA) to intraperitoneally sensitize female […] mice. On the 21st, 22nd and 23rd days of two initial sensitizations, 1% OVA was sprayed into the mice using an ultrasonic nebulizer. The compound of the present invention (LMT-696; 5 mg/kg), LY255283 (5 mg/kg, Cayman) or DMSO was intraperitoneally injected at the 1 hour before the 1% OVA spraying. On the 24th day of the initial sensitization, airway hyperresponsiveness (AHR) was detected, and on the 25th day, the mice were dissected to observe asthma phenotypes, for example, inflammatory cytokine IL-4 expression and the influx of inflammatory cells (neutrophils). In the case of lipopolysaccharide (LPS)-induced severe asthma animal models, on the 0, 1st, 2nd and 7th days, 75 μg of OVA and 1 mg of LPS were intranasally injected into Balb/c mice for sensitization. On the 14th, 15th, 21th and 22th days, 50 μg of OVA was injected into the nose for a challenge. The compound of the present invention (LMT-1013) (1, 3, 10 or 30 mg/kg), montelukast (10 mg/kg, DRS) or a control buffer (10% DMA, 5% Tween 80, 85% brine) were treated one hour before the challenge by injecting 50 μg of OVA into the nose. On the 23rd day of the initial sensitization, AHR was detected, and on the 24th day, the mice were dissected to observe a severe asthma phenotype, for example, the influx of the inflammatory cells (neutrophils). In addition, the AHR detection was performed after an airway constrictor, methacholine (6.25 to 50 mg/ml depending on conditions), was administered to the mice. The administration of the airway constrictor was performed by spraying through an inlet of the chamber using an ultrasonic nebulizer for 3 minutes. The AHR was analyzed using an enhanced pause as the indicator of the asthma phenomenon. Bronchoalveolar lavage fluid cell counts were quantified by counting cells under an optical microscope (magnification, 200×). In each analysis, 4 fields were subjected to counting, each sample was analyzed twice, and the analysis was repeated three times.

T3 sequence (Q15722 whole entry, species assumed): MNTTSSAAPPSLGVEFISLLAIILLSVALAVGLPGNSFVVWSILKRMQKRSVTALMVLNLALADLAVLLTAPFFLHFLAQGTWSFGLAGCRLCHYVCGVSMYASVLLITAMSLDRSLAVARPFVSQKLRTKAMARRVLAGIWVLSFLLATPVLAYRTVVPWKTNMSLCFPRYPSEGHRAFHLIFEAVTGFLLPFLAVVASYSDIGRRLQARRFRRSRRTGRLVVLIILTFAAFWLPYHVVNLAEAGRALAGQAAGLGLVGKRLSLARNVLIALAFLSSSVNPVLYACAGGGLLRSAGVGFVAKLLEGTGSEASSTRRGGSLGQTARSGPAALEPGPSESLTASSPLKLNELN

IC50 (BLT2 [1]): 0.0307 µM | IC50 (BLT2 [2]): 0.0624 µM | cell growth compared with the control DMSO [3]: 96.3% | IC50 (BLT1): ≥ 10 µM
SMILES: CCCCC(=O)N(CC#Cc1ccc(C(=O)O)cc1)c1ccccc1 [LMT-1013, 4-(3-(N-phenylpentaneamido)prop-1-yn-1-yl)benzoic acid]
neutrophils reduced ([4]; 1 mg/kg, FIGS. 13A-13C): 51.6% | neutrophils reduced ([4]; 1 mg/kg, FIGS. 14A-14B): 42.2% | AHR reduced ([4]; 1 mg/kg): 48.6% | neutrophils reduced ([4]; 3 mg/kg, FIGS. 14A-14B): 48.8% | AHR reduced ([4]; 3 mg/kg): 52.9% | neutrophils reduced ([4]; 10 mg/kg, FIGS. 13A-13C): 90.3% | neutrophils reduced ([4]; 10 mg/kg, FIGS. 14A-14B): 71.8% | AHR reduced ([4]; 10 mg/kg): 83.2% | neutrophils reduced ([4]; 30 mg/kg, FIGS. 14A-14B): 88.3% | AHR reduced ([4]; 30 mg/kg): 87.3% | total cells entering the abdominal cavity of the mice ([4]; 1, 3, 10 and 30 mg/kg, FIGS. 14A-14B): reduced | total cells entering the abdominal cavity of the mice ([4]; 1 and 10 mg/kg, FIGS. 13A-13C): reduced

Reference: patent US10766857B2, “Compound having BLT inhibitory activity and composition, for preventing or treating inflammatory diseases, comprising same as active ingredient” (DONGGUK UNIVERSITY INDUSTRY-ACADEMIC COOPERATION FOUNDATION, priority 2015, dated 2020)
